PubChem BioAssay (NCI)
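GI50 marks 50% less growth. TGI marks complete inhibition of growth.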

Columns and labels:
Experiment in all cases: NCI tumour cell line growth inhibition, 384-well format
[1] = test system: HOP-92 NSCLC
[2] = test system: MOLT-4 leukemia
[3] = test system: EKVX NSCLC
[4] = test system: OVCAR-5 ovarian
[5] = test system: SF-539 CNS
[6] = test system: SF-295 CNS
[7] = test system: HT29 colon
[8] = test system: IGROV1 ovarian
[9] = test system: RXF 393 renal
[10] = test system: MALME-3M melanoma
[11] = test system: DU-145 prostate
[12] = test system: NCI-H322M lung
[13] = test system: MDA-MB-435 melanoma
[14] = test system: PC-3 prostate
[15] = test system: LOX IMVI melanoma
[16] = test system: HL-60(TB) leukemia
[17] = test system: SK-MEL-5 melanoma
[18] = test system: TK-10 renal
[19] = test system: T-47D breast
[20] = test system: SK-MEL-28 melanoma
[21] = test system: OVCAR-8 ovarian
[22] = test system: A498 renal
[23] = test system: OVCAR-4 ovarian
[24] = test system: M14 melanoma
[25] = test system: HCC-2998 colon
[26] = test system: U251 glioblastoma
[27] = test system: SNB-19 CNS

SMILES: CC(C)c1cc(C(=O)N2Cc3ccc(CN4CCN(C)CC4)cc3C2)c(O)cc1O
- GI50 [1]: 217 nM
- TGI [1]: 1600 nM
- GI50 [2]: 19.4 nM
- TGI [2]: 35.7 nM
- GI50 [3]: 46.1 nM
- TGI [3]: 8590 nM
- GI50 [4]: 38.7 nM
- TGI [4]: 186 nM
- GI50 [5]: 40.4 nM
- TGI [5]: 10400 nM
- GI50 [6]: 40.7 nM
- TGI [6]: 256 nM
- GI50 [7]: 40.5 nM
- TGI [7]: 11300 nM
- GI50 [8]: 37.7 nM
- TGI [8]: 216 nM
- GI50 [9]: 33.8 nM
- TGI [9]: 11300 nM
- GI50 [10]: 61.5 nM
- TGI [10]: 694 nM
- GI50 [11]: 30.3 nM
- TGI [11]: 88.7 nM
- GI50 [12]: 84.7 nM
- TGI [12]: 4760 nM
- GI50 [13]: 35.3 nM
- TGI [13]: 10500 nM
- GI50 [14]: 46.5 nM
- TGI [14]: 319 nM
- GI50 [15]: 39.2 nM
- TGI [15]: 146 nM
- GI50 [16]: 21.8 nM
- TGI [16]: 41.7 nM
- GI50 [17]: 23.7 nM
- TGI [17]: 1330 nM
- GI50 [18]: 45 nM
- TGI [18]: 856 nM
- GI50 [19]: 172 nM
- TGI [19]: 11600 nM
- GI50 [20]: 400 nM
- TGI [20]: 17100 nM
- GI50 [21]: 37.9 nM
- TGI [21]: 175 nM
- GI50 [22]: 82.2 nM
- TGI [22]: 11300 nM
- GI50 [23]: 33.2 nM
- TGI [23]: 1700 nM
- GI50 [24]: 47.9 nM
- TGI [24]: 2690 nM
- GI50 [25]: 12.4 nM
- TGI [25]: 31.7 nM
- GI50 [26]: 34.3 nM
- TGI [26]: 97.3 nM
- GI50 [27]: 76.4 nM
- TGI [27]: 710 nM
